Reference: PubChem BioAssay (NCI)
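The concentration for 50% growth inhibition is given as GI50. TGI marks complete inhibition of growth.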

Legend:
Assay in all cases: NCI-60 cell line screen, 384-well format
HS 578T breast = tested on: HS 578T breast
A498 renal = tested on: A498 renal
RXF 393 renal = tested on: RXF 393 renal
HCC-2998 colon = tested on: HCC-2998 colon
SF-268 CNS = tested on: SF-268 CNS
NCI-H23 lung = tested on: NCI-H23 lung
HOP-92 NSCLC = tested on: HOP-92 NSCLC
OVCAR-8 ovarian = tested on: OVCAR-8 ovarian
EKVX NSCLC = tested on: EKVX NSCLC
OVCAR-4 ovarian = tested on: OVCAR-4 ovarian
MALME-3M melanoma = tested on: MALME-3M melanoma
UO-31 renal = tested on: UO-31 renal
SK-MEL-5 melanoma = tested on: SK-MEL-5 melanoma
M14 melanoma = tested on: M14 melanoma
OVCAR-5 ovarian = tested on: OVCAR-5 ovarian
UACC-62 melanoma = tested on: UACC-62 melanoma
SR leukemia = tested on: SR leukemia
MDA-MB-435 melanoma = tested on: MDA-MB-435 melanoma
NCI-H322M lung = tested on: NCI-H322M lung
IGROV1 ovarian = tested on: IGROV1 ovarian
HCT-15 colon = tested on: HCT-15 colon
COLO 205 colon = tested on: COLO 205 colon
BT-549 breast = tested on: BT-549 breast
TK-10 renal = tested on: TK-10 renal
MOLT-4 leukemia = tested on: MOLT-4 leukemia
SNB-75 CNS = tested on: SNB-75 CNS
PC-3 prostate = tested on: PC-3 prostate
HT29 colon = tested on: HT29 colon
NCI/ADR-RES ovarian = tested on: NCI/ADR-RES ovarian
A549 NSCLC = tested on: A549 NSCLC
NCI-H226 lung = tested on: NCI-H226 lung
DU-145 prostate = tested on: DU-145 prostate
LOX IMVI melanoma = tested on: LOX IMVI melanoma
MCF7 breast = tested on: MCF7 breast
RPMI-8226 leukemia = tested on: RPMI-8226 leukemia
SK-MEL-28 melanoma = tested on: SK-MEL-28 melanoma
CAKI-1 renal = tested on: CAKI-1 renal
MDA-MB-231 breast = tested on: MDA-MB-231 breast
CCRF-CEM leukemia = tested on: CCRF-CEM leukemia
HL-60(TB) leukemia = tested on: HL-60(TB) leukemia
SW-620 colon = tested on: SW-620 colon
SF-295 CNS = tested on: SF-295 CNS
KM12 colon = tested on: KM12 colon
ACHN renal = tested on: ACHN renal
SNB-19 CNS = tested on: SNB-19 CNS
NCI-H460 NSCLC = tested on: NCI-H460 NSCLC
K-562 leukemia = tested on: K-562 leukemia
NCI-H522 lung = tested on: NCI-H522 lung
MDA-MB-468 breast = tested on: MDA-MB-468 breast
T-47D breast = tested on: T-47D breast
786-0 renal = tested on: 786-0 renal
SF-539 CNS = tested on: SF-539 CNS
SN12C renal = tested on: SN12C renal
OVCAR-3 ovarian = tested on: OVCAR-3 ovarian
UACC-257 melanoma = tested on: UACC-257 melanoma
HOP-62 NSCLC = tested on: HOP-62 NSCLC
SK-OV-3 ovarian = tested on: SK-OV-3 ovarian

With `Cn1ncc(-c2ccc3c(=O)[nH]nc(CN)c3c2)c1-c1c(F)cc2ccccc2c1C#N` the GI50 (HS 578T breast) was 1.76 µM, the TGI (HS 578T breast) was 4.22 µM and the GI50 (A498 renal) was 2.22 µM. For the same compound, the TGI (A498 renal) was 11 µM, the GI50 (RXF 393 renal) was 1.69 µM and the TGI (RXF 393 renal) was 8.25 µM. It also gave a GI50 (HCC-2998 colon) of 3.08 µM, a TGI (HCC-2998 colon) of 14 µM and a GI50 (SF-268 CNS) of 2.4 µM. The TGI (SF-268 CNS) was 12 µM, the GI50 (NCI-H23 lung) was 2.19 µM and the TGI (NCI-H23 lung) was 7.34 µM. For the same compound, the GI50 (HOP-92 NSCLC) was 1.18 µM, the TGI (HOP-92 NSCLC) was 6.91 µM and the GI50 (OVCAR-8 ovarian) was 2.59 µM. The TGI (OVCAR-8 ovarian) was 15.2 µM, the GI50 (EKVX NSCLC) was 5.14 µM and the TGI (EKVX NSCLC) was 18.7 µM. For the same compound, the GI50 (OVCAR-4 ovarian) was 1.3 µM, the TGI (OVCAR-4 ovarian) was 7.5 µM and the GI50 (MALME-3M melanoma) was 1.59 µM. For the same compound, the TGI (MALME-3M melanoma) was 5.5 µM, the GI50 (UO-31 renal) was 6.43 µM and the TGI (UO-31 renal) was 19.6 µM. The GI50 (SK-MEL-5 melanoma) was 1.18 µM, the TGI (SK-MEL-5 melanoma) was 3.27 µM and the GI50 (M14 melanoma) was 2.83 µM. For the same compound, the TGI (M14 melanoma) was 8.76 µM, the GI50 (OVCAR-5 ovarian) was 4.58 µM and the TGI (OVCAR-5 ovarian) was 17.1 µM. The GI50 (UACC-62 melanoma) was 2.97 µM, the TGI (UACC-62 melanoma) was 14.2 µM and the GI50 (SR leukemia) was 0.0374 µM. It also gave a TGI (SR leukemia) of 0.313 µM, a GI50 (MDA-MB-435 melanoma) of 2.08 µM and a TGI (MDA-MB-435 melanoma) of 4.61 µM. For the same compound, the GI50 (NCI-H322M lung) was 4.74 µM, the TGI (NCI-H322M lung) was 18.3 µM and the GI50 (IGROV1 ovarian) was 3.42 µM. The TGI (IGROV1 ovarian) was 14 µM, the GI50 (HCT-15 colon) was 2.28 µM and the TGI (HCT-15 colon) was 10.8 µM. For the same compound, the GI50 (COLO 205 colon) was 2.9 µM, the TGI (COLO 205 colon) was 15.3 µM and the GI50 (BT-549 breast) was 2.9 µM. The TGI (BT-549 breast) was 11 µM, the GI50 (TK-10 renal) was 8.98 µM and the TGI (TK-10 renal) was 21.2 µM. The GI50 (MOLT-4 leukemia) was 0.0298 µM, the TGI (MOLT-4 leukemia) was 0.101 µM and the GI50 (SNB-75 CNS) was 2.55 µM. The TGI (SNB-75 CNS) was 10.3 µM, the GI50 (PC-3 prostate) was 3.96 µM and the TGI (PC-3 prostate) was 14.7 µM. It also gave a GI50 (HT29 colon) of 2.64 µM, a TGI (HT29 colon) of 11.8 µM and a GI50 (NCI/ADR-RES ovarian) of 5.21 µM. For the same compound, the TGI (NCI/ADR-RES ovarian) was 25.1 µM, the GI50 (A549 NSCLC) was 2.8 µM and the TGI (A549 NSCLC) was 14 µM. For the same compound, the GI50 (NCI-H226 lung) was 3.4 µM, the TGI (NCI-H226 lung) was 15.1 µM and the GI50 (DU-145 prostate) was 3.87 µM. For the same compound, the TGI (DU-145 prostate) was 14.9 µM, the GI50 (LOX IMVI melanoma) was 2.73 µM and the TGI (LOX IMVI melanoma) was 11.1 µM. For the same compound, the GI50 (MCF7 breast) was 1.11 µM, the TGI (MCF7 breast) was 9.34 µM and the GI50 (RPMI-8226 leukemia) was 1.45 µM. It also gave a TGI (RPMI-8226 leukemia) of 3.02 µM, a GI50 (SK-MEL-28 melanoma) of 3.09 µM and a TGI (SK-MEL-28 melanoma) of 12.6 µM. For the same compound, the GI50 (CAKI-1 renal) was 3.23 µM, the TGI (CAKI-1 renal) was 13.9 µM and the GI50 (MDA-MB-231 breast) was 2.1 µM. The TGI (MDA-MB-231 breast) was 14.4 µM, the GI50 (CCRF-CEM leukemia) was 1.15 µM and the TGI (CCRF-CEM leukemia) was 3.04 µM. The GI50 (HL-60(TB) leukemia) was 1.72 µM, the TGI (HL-60(TB) leukemia) was 3.29 µM and the GI50 (SW-620 colon) was 2.54 µM. It also gave a TGI (SW-620 colon) of 11.5 µM, a GI50 (SF-295 CNS) of 4.96 µM and a TGI (SF-295 CNS) of 17.2 µM. For the same compound, the GI50 (KM12 colon) was 2.63 µM, the TGI (KM12 colon) was 11.3 µM and the GI50 (ACHN renal) was 2.3 µM. The TGI (ACHN renal) was 11.2 µM, the GI50 (SNB-19 CNS) was 4.87 µM and the TGI (SNB-19 CNS) was 18.8 µM. The GI50 (NCI-H460 NSCLC) was 1.27 µM, the TGI (NCI-H460 NSCLC) was 11.5 µM and the GI50 (K-562 leukemia) was 2.11 µM. The TGI (K-562 leukemia) was 8.63 µM, the GI50 (NCI-H522 lung) was 2.37 µM and the TGI (NCI-H522 lung) was 6.27 µM. The GI50 (MDA-MB-468 breast) was 1.31 µM, the TGI (MDA-MB-468 breast) was 3.44 µM and the GI50 (T-47D breast) was 1.08 µM. The TGI (T-47D breast) was 6.19 µM, the GI50 ([…]-0 renal) was 2.13 µM and the TGI (786-0 renal) was 12.6 µM. The GI50 (SF-539 CNS) was 1.84 µM, the TGI (SF-539 CNS) was 5.38 µM and the GI50 (SN12C renal) was 2.17 µM. For the same compound, the TGI (SN12C renal) was 9.35 µM, the GI50 (OVCAR-3 ovarian) was 1.77 µM and the TGI (OVCAR-3 ovarian) was 5.25 µM. The GI50 (UACC-257 melanoma) was 2.64 µM, the TGI (UACC-257 melanoma) was 8.43 µM and the GI50 (HOP-62 NSCLC) was 2.41 µM. The TGI (HOP-62 NSCLC) was 13 µM, the GI50 (SK-OV-3 ovarian) was 4.57 µM and the TGI (SK-OV-3 ovarian) was 16.6 µM.
